Measurements taken from the NIST ThermoML archive (doi:10.1016/j.jct.2015.09.020).

Assay: mn = molality of the nth substance listed, in mol/kg
Details: 101.3 kPa, Liquid

N[C@@H](CCC(=O)[O-])C(=O)O.[Na+] [sodium (S)-2-amino-4-carboxybutanoate] + O
speed of sound [m/s]
Details	278.15 K	288.15 K	298.15 K
Frequency=2 MHz, Linear variable-path acoustic interferometer, m1 = 0.0467	1433.6	–	–
Frequency=2 MHz, Linear variable-path acoustic interferometer, m1 = 0.0724	1437.7	–	–
Frequency=2 MHz, Linear variable-path acoustic interferometer, m1 = 0.091	1441	–	–
Frequency=2 MHz, Linear variable-path acoustic interferometer, m1 = 0.1095	1442.8	–	–
Frequency=2 MHz, Linear variable-path acoustic interferometer, m1 = 0.1355	1446.8	–	–
Frequency=2 MHz, Linear variable-path acoustic interferometer, m1 = 0.163	1451.4	–	–
Frequency=2 MHz, Linear variable-path acoustic interferometer, m1 = 0.1906	1455.3	–	–
Frequency=2 MHz, Linear variable-path acoustic interferometer, m1 = 0.2075	1458.8	–	–
Frequency=2 MHz, Linear variable-path acoustic interferometer, m1 = 0.2251	1461.7	–	–
Frequency=2 MHz, Linear variable-path acoustic interferometer, m1 = 0.2436	1464	–	–
Frequency=2 MHz, Linear variable-path acoustic interferometer, m1 = 0.2705	1468.1	–	–
Frequency=2 MHz, Linear variable-path acoustic interferometer, m1 = 0.2895	1471.7	–	–
Frequency=2 MHz, Linear variable-path acoustic interferometer, m1 = 0.302	1473.6	–	–
Frequency=3 MHz, Sing-around technique in a fixed-path interferometer, m1 = 0.0469	–	1472.9	1502.5
Frequency=3 MHz, Sing-around technique in a fixed-path interferometer, m1 = 0.072	–	1476.6	1505.8
Frequency=3 MHz, Sing-around technique in a fixed-path interferometer, m1 = 0.0904	–	1478.9	1508.2
Frequency=3 MHz, Sing-around technique in a fixed-path interferometer, m1 = 0.1082	–	1481.3	1510.5
Frequency=3 MHz, Sing-around technique in a fixed-path interferometer, m1 = 0.1368	–	1485.6	1514.4
Frequency=3 MHz, Sing-around technique in a fixed-path interferometer, m1 = 0.1628	–	1489.3	1517.9
Frequency=3 MHz, Sing-around technique in a fixed-path interferometer, m1 = 0.19	–	1492.9	1521.3
Frequency=3 MHz, Sing-around technique in a fixed-path interferometer, m1 = 0.2089	–	1495.3	1523.6
Frequency=3 MHz, Sing-around technique in a fixed-path interferometer, m1 = 0.2289	–	1497.5	1525.8
Frequency=3 MHz, Sing-around technique in a fixed-path interferometer, m1 = 0.2441	–	1499.7	1527.8
Frequency=3 MHz, Sing-around technique in a fixed-path interferometer, m1 = 0.264	–	1503.2	1531.1
Frequency=3 MHz, Sing-around technique in a fixed-path interferometer, m1 = 0.2916	–	1506.7	1533.9
Frequency=3 MHz, Sing-around technique in a fixed-path interferometer, m1 = 0.316	–	1509	1537

mass density [kg/m3]
Details	278.15 K	288.15 K	298.15 K
Pycnometric method, m1 = 0.0467	1004.22	–	–
Pycnometric method, m1 = 0.0724	1006.57	–	–
Pycnometric method, m1 = 0.091	1008.26	–	–
Pycnometric method, m1 = 0.1095	1009.79	–	–
Pycnometric method, m1 = 0.1355	1012.41	–	–
Pycnometric method, m1 = 0.163	1014.89	–	–
Pycnometric method, m1 = 0.1906	1017.32	–	–
Pycnometric method, m1 = 0.2075	1018.82	–	–
Pycnometric method, m1 = 0.2251	1020.29	–	–
Pycnometric method, m1 = 0.2436	1022.15	–	–
Pycnometric method, m1 = 0.2705	1024.19	–	–
Pycnometric method, m1 = 0.2895	1026.12	–	–
Pycnometric method, m1 = 0.302	1027.42	–	–
Vibrating tube method, m1 = 0.0469	–	1003.34	1001.22
Vibrating tube method, m1 = 0.072	–	1005.66	1003.48
Vibrating tube method, m1 = 0.0904	–	1007.29	1005.08
Vibrating tube method, m1 = 0.1082	–	1008.87	1006.62
Vibrating tube method, m1 = 0.1368	–	1011.34	1009.04
Vibrating tube method, m1 = 0.1628	–	1013.63	1011.28
Vibrating tube method, m1 = 0.19	–	1016.04	1013.63
Vibrating tube method, m1 = 0.2089	–	1017.65	1015.21
Vibrating tube method, m1 = 0.2289	–	1019.31	1016.84
Vibrating tube method, m1 = 0.2441	–	1020.63	1018.13
Vibrating tube method, m1 = 0.264	–	1022.32	1019.79
Vibrating tube method, m1 = 0.2916	–	1024.67	1022.11
Vibrating tube method, m1 = 0.316	–	1026.69	1024.08
